Measurements published in PMC8297476 (Biochemistry, 2021).

Columns and labels:
[1] = target: T1, adenylate kinase (AdK) (Escherichia coli, UniProt P69441); assay: isothermal titration calorimetry; assay type: binding
[2] = target: T1, adenylate kinase (AdK); assay: steady-state enzyme kinetics; assay type: biochemical; details: cited from earlier work

T1 sequence (P69441 whole entry): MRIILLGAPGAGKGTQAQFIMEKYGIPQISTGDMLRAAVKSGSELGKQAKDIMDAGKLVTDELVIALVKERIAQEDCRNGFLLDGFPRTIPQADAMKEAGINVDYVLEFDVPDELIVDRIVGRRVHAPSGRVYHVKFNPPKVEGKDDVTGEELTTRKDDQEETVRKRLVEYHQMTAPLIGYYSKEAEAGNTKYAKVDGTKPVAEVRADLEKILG

Kd [1] [µM]	Compound	Km [2] [µM]
9	Nc1ncnc2c1ncn2[C@@H]1O[C@H](COP(=O)(O)OP(=O)(O)O)[C@@H](O)[C@H]1O [ADP]	–
–	Nc1ncnc2c1ncn2[C@@H]1O[C@H](COP(=O)(O)OP(=O)(O)OP(=O)(O)O)[C@@H](O)[C@H]1O [ATP]	71
